Measured values published in paper PMC7126861 (Bioorganic & Medicinal Chemistry Letters, 2010).

Each compound was assayed against SARS-CoV 3CL^pro (Severe acute respiratory syndrome coronavirus, UniProt P0C6X7) (assay: biochemical).
In the case of `N#Cc1c(-c2ccccc2)nc(SCc2ccccc2)[nH]c1=O` [Compound 6a], the IC50 is reported as greater than 50 µM. In the case of `N#Cc1c(-c2ccccc2)nc(SCCc2ccccc2)[nH]c1=O` [Compound 6b], the IC50 is reported as greater than 50 µM. For `COc1ccc(-c2nc(SCc3ccccc3)[nH]c(=O)c2C#N)cc1` [Compound 6d], the IC50 was greater than 50 µM. `Cc1ccc(-c2nc(SCc3ccccc3)[nH]c(=O)c2C#N)cc1` [Compound 6g] showed an IC50 greater than 50 µM. With `Cc1ccc(-c2nc(SCCc3ccccc3)[nH]c(=O)c2C#N)cc1` [Compound 6h] the IC50 was greater than 50 µM. With `Cc1ccc(-c2nc(SCc3ccc([N+](=O)[O-])cc3)[nH]c(=O)c2C#N)cc1` [Compound 6i] the IC50 was greater than 50 µM. `N#Cc1c(-c2cccc([N+](=O)[O-])c2)nc(SCCc2ccccc2)[nH]c1=O` [Compound 6j] showed an IC50 greater than 50 µM. With `N#Cc1c(-c2cccc(Cl)c2)nc(SCc2ccccc2)[nH]c1=O` [Compound 6n] the IC50 was greater than 50 µM.
